The term CC50 denotes the concentration at which the toxic effect on the cells reaches its halfway point.

Series [1] is described as follows: Cytotoxicity assay in MCF7 (MTT). The class given is cell-based. The conditions noted are these: human, MCF-7 cells, read-out: MCF7 inhibition (CC50).
Method: THP-1 human acute monocytic leukemia cells and NCI-H460 human lung carcinoma cells were grown in RPMI supplemented with 10% FBS. Hep-G2 human hepatocellular carcinoma cells were cultured in Eagle’s minimum essential medium (EMEM) supplemented with 10% FBS. A2780 human ovarian carcinoma cells were grown in RPMI supplemented with 10% FBS and 2 mM L-glutamine. MCF-7 human breast adenocarcinoma cells were cultured in EMEM containing 2 mM L-glutamine and Earle’s balanced salt solution adjusted with 1.5 g/L sodium bicarbonate, 0.1 mM non-essential amino acids, and 1 mM sodium pyruvate and supplemented with 10% FBS. […] Except for Caco-2 and HUVEC, inhibition of cell growth was evaluated using a protocol based on monitoring the transformation into formazan of the tetrazolium salt of MTT (3-(4,5-dimethylthiazol-2-yl)-2,5-diphenyltretrazolium bromide) by metabolically active cells. […] After 96 further h of incubation in the same conditions, 10 µL of a 5 mg/mL MTT solution in PBS was added to each sample, and the incubation was resumed for another 4 h. […] The absorbance measurement range was framed between one sample containing 4000 cells in plain growth medium (to determine the stable cell concentration) and another sample containing an equal cell number in growth medium supplemented with growth factors (to measure the maximum cell growth at 96 h).
Series [2] in a line: Cytotoxicity across seven human cell lines. The class given is cell-based. The conditions noted are these: range over cell types, read-out: CC50 in seven different human cell lines. Here is the method: THP-1 human acute monocytic leukemia cells and NCI-H460 human lung carcinoma cells were grown in RPMI supplemented with 10% FBS. Hep-G2 human hepatocellular carcinoma cells were cultured in Eagle’s minimum essential medium (EMEM) supplemented with 10% FBS. A2780 human ovarian carcinoma cells were grown in RPMI supplemented with 10% FBS and 2 mM L-glutamine. MCF-7 human breast adenocarcinoma cells were cultured in EMEM containing 2 mM L-glutamine and Earle’s balanced salt solution adjusted with 1.5 g/L sodium bicarbonate, 0.1 mM non-essential amino acids, and 1 mM sodium pyruvate and supplemented with 10% FBS. […] Except for Caco-2 and HUVEC, inhibition of cell growth was evaluated using a protocol based on monitoring the transformation into formazan of the tetrazolium salt of MTT (3-(4,5-dimethylthiazol-2-yl)-2,5-diphenyltretrazolium bromide) by metabolically active cells. […] The incubation was continued for an additional 12 to 14 h, and absorbance was measured at 595 nm (Tecan M1000 Infinite® Pro, Tecan Trading AG, Männedorf, Switzerland). The absorbance measurement range was framed between one sample containing 4000 cells in plain growth medium (to determine the stable cell concentration) and another sample containing an equal cell number in growth medium supplemented with growth factors (to measure the maximum cell growth at 96 h). […]

With `CCN(CC)c1ccc(/C=C/c2cc[n+](CCCCCCCCCC[n+]3ccc(/C=C/c4ccc(N(CC)CC)cc4)c(C)c3)cc2C)cc1` [YAT2150], the CC50 at 96 h in series [1] stood at 930 ± 10 nM. Besides, the CC50 in series [2] lay within 590 to 18200 nM.

The values are drawn from publication PMC11514582, “Leveraging the Aggregated Protein Dye YAT2150 for Malaria Chemotherapy” (Pharmaceutics, 2024).
